A word on the IC50: it is the midpoint of a concentration-inhibition curve.

Like-named read-outs stand apart in the source and are kept apart here. Marks after values point to notes of the source that are not given here.

We go through 4 molecules from PMC10965668, “Combined use of multiparametric high-content-screening and in vitro circadian reporter assays in neurotoxicity evaluation” (Archives of Toxicology, 2024).

Common to all, as to type: cell-based, human
Data set [1] relates to U87 MG/PER2-dLuc cells. Put plainly: in vitro cellular bioluminescence (PER2-dLuc circadian reporter) assay. As to conditions: for concentration that disrupted the cellular circadian rhythm / concentration with no disruptive effect on cellular circadian rhythm: Fig. 3; for LOAEL Circadian disruption: U87 MG/PER2-dLuc cells, bioluminescence monitored 5 days; for effect on cellular circadian rhythm: at disrupting concentration: MPP + ≥ 30 µM, DDT 10 µM, PMX ≥ 30 µM, CPX ≥ 40 µM, CPF 1.5 µM. The method, then: U-87 MG (ATCC® HTB-14™) is a well-recognized human glioblastoma cell line widely used in the field of neuroscience. U87 MG cells have a regular and strong cellular circadian rhythm after transfection with a circadian gene (i.e., BMAL1) reporter vector (Jung et al. [2013]; Slat et al. [2017]). As described in our previous report (Fang et al. [2015], [2017]), U87 MG cells were transfected with a circadian reporter vector pGL [PER2P (Luc2P/Neo)] expressing destabilized firefly luciferase driven by the human PER2 promoter using FuGene HD™ transfection reagent (LightSwitch Genomics), and stably transfected cells were selected and cultured with 1000 μg/mL G418 (Invitrogen). The stably transfected cells were used to examine the cellular circadian rhythm using an in vitro cellular bioluminescence assay. U87 MG/PER2P-dLuc cells were cultured in Eagle’s minimum essential medium (EMEM) (11430030; Gibco) supplemented with 5% fetal bovine serum (FBS) (26140079; Gibco) and 1% penicillin/streptomycin (15140122; Gibco) at 37 °C in an atmosphere of 95% humidity and 5% CO2.
Briefly, cultured U87 MG/PER2 -dLuc cells were seeded in 35-mm dishes at 3 × 10^5 cells/dish and incubated until 70–80% confluency was reached. The cells were FBS-starved for three days at 70% confluency and then synchronized with 50% horse serum (16050122; Gibco) (Balsalobre et al. [1998]). After decanting and washing, recording medium (EMEM with 20% of growing medium containing 5% FBS, 6.5 mM sodium bicarbonate, 10 mM HEPES buffer [pH 7.2], 0.1 mM luciferin [E1602; Promega], and 50 U/mL penicillin and 50 µg/mL streptomycin) was added. Subsequently, the cells were treated with each compound. The 35-mm dishes were sealed with a sterile glass cover slide using silicon grease and subjected to continuous monitoring with a LumiCycle 32™ (Actimetrics) for 5 days. The analytical method was optimized according to the instruction manual of the LumiCycle Analysis Software (Actimetrics). Using this software, data were detrended (running average), and best fits to a sine wave were estimated using the Levenberg–Marquardt algorithm for period, phase, amplitude, and damping rate measurements, as previously reported (Chen et al. [2012]; Fang et al. [2015], [2017]).

Data set [2] relates to U87 MG/PER2-dLuc cells. Briefly: multiparametric high-content screening (HCS) assay. As to conditions: for LOAEL MMP (mitochondrial membrane potential): TMRM; for LOAEL LP (lipid peroxidation): BODIPY 665/676; for LOAEL CA (calcium ion): Fluo-4 AM; for LOAEL NC (nuclear size): Hoechst 33342. As to the method:
A multiparametric analysis of compound toxicity at the level of individual cells was conducted using the HCS method established by Tolosa et al. ([2012]) to assess the liver toxicity of chemicals and drugs. Briefly, U87 MG/PER2-dLuc cells were seeded in 96-well plates specific for HCS at a density of 10^4 cells/well. […] Following these treatments, cells were treated with a mixture of Hoechst 33342 (Hoechst) (B2261; Sigma-Alrich) at 1.5 µg/mL to assess the nuclear size (NC), 75 ng/mL tetramethyl rhodamine methyl ester (TMRM) (T-668; Molecular Probes) as a mitochondrial membrane potential (MMP) sensor, 0.24 µM fluo-4 acetoxymethyl ester (Fluo-4 AM) (F14217; Molecular Probes) to detect intracellular calcium ions (Ca^2+), and 1.5 µg/mL of (E,E)-3,5-bis-(4-phenyl-1,3-butadienyl)-4,4-difluoro-4-bora-3a,4a-diaza-s-indacene (BODIPY 665/676) (b-3932; Molecular Probes) to evaluate lipid peroxidation. After incubation for 1 h, the cells were imaged using an IN Cell Analyzer 6000 (GE Healthcare Life Sciences) and analyzed using IN Cell Miner HCM. The data were analyzed with IN Cell Analyzer 6000 Analysis Software. Nuclear morphological alterations were assessed based on the Hoechst staining. The nucleus was defined as the main object detected using an edge detection algorithm. To separate individual cells, segmentation was applied. All measurements were restricted to live cells. Lipid peroxidation was detected based on BODIPY fluorescence intensity in the cytoplasm. The cellular MMP was defined as the TMRM fluorescence intensity in punctate cytosolic regions surrounding the nucleus. Fluo-4 intensity was used to measure changes in the cytosolic-free Ca^2+ concentration. An intensity algorithm with a fixed threshold was used to measure TMRM, Fluo-4, and BODIPY fluorescence. Each measurement was performed in individual cells. The values of triplicate same-treatment wells were averaged and normalized to the average value of vehicle control (0.1% DMSO-treated or naïve cells).
The values of triplicate same-treatment wells were averaged and normalized to the average value of the negative control group, and differences in parameters between concentrations were analyzed using one-way ANOVA followed by Duncan’s tests. A p-value < 0.05 was considered significant.

For data set [3], the system named is U87 MG/PER2-dLuc cells. Briefly: cells. To be noted: 72 h treatment. The method, then:
U87 MG/PER2-dLuc cells were subjected to the 3-(4, 5-dimethylthiazol-2-yl)-2, 5-diphenyl tetrazolium bromide (MTT) (M2128; Sigma-Aldrich) assay. […] Briefly, U87 MG/PER2-dLuc cells were seeded in 96-well plates at a density of 10^5 cells/mL, incubated for 48 h, and treated with relevant chemicals at various concentrations for 72 h. Subsequently, the media with chemicals were decanted and 20μl of MTT reagent solution (5 mg/ml) with 80μl of the media was added to all wells the plates and were incubated for 2 h until the formation of formazan crystals. The reagent solution was decanted, and 100μl of DMSO (D8418; Sigma-Aldrich) was added. Absorbance was measured at 570 nm using a spectrophotometer (Molecular Devices). The values of triplicate same-treatment wells were averaged.

`O=C(O)c1cn(C2CC2)c2cc(N3CCNCC3)c(F)cc2c1=O` [CPX, ciprofloxacin]: in the data set with U87 MG/PER2-dLuc cells [1], the “concentration that disrupted the cellular circadian rhythm” value is reported as not below 40 µM, the “LOAEL Circadian disruption” value is 40 µM and the “effect on cellular circadian rhythm” value is “increased the circadian rhythm”. The “LOAEL MMP (mitochondrial membrane potential)” value (“LOAEL MMP” for short) in the data set with U87 MG/PER2-dLuc cells [2] (24-h treatment) was 0.94** µM. Also, the “concentration that increased intracellular Ca2+ levels” value in the data set with U87 MG/PER2-dLuc cells [2] (72-h timepoint) is on record as more than 0.94 µM. In the data set on U87 MG/PER2-dLuc cells [2] (72-h treatment), the “LOAEL LP (lipid peroxidation)” value is 0.94** µM and the “LOAEL CA (calcium ion)” value is listed as 0.94** µM. In the data set with U87 MG/PER2-dLuc cells [2] (24 h of treatment), the “lowest concentration with decrease in MMP” value is given as 0.94 µM. The “concentrations with increased lipid peroxidation” value in the data set on U87 MG/PER2-dLuc cells [2] (72 h of treatment) is more than 0.94 µM. Further, in the data set on U87 MG/PER2-dLuc cells [3], the “IC15 (MTT, Table 1)” value was found to be 19.8 µM. The IC50 in the data set on U87 MG/PER2-dLuc cells [3] (Homo sapiens, U-87 MG, no unit with values, axis Concentration[μM], read-out: IC50 (cell viability, MTT; Fig. 1)) stood at 98.3 µM. The IC50 in the data set with U87 MG/PER2-dLuc cells [3] (Homo sapiens, U-87 MG, read-out: IC50 (MTT, Table 1)) amounted to 98 µM. The IC50 in the data set on U87 MG/PER2-dLuc cells [3] (Homo sapiens, U-87 MG, read-out: IC50 (cell viability, MTT)) came to 98.3 µM.

With polymyxin B [PMX], in the data set on U87 MG/PER2-dLuc cells [1], the “concentration that disrupted the cellular circadian rhythm” value is recorded as not below 30 µM; the “concentration with no disruptive effect on cellular circadian rhythm” value came out at 15 µM; the “LOAEL Circadian disruption” value worked out at 30 µM; the “effect on cellular circadian rhythm” value is “advanced phase and decreased amplitude”. Moreover, in the data set on U87 MG/PER2-dLuc cells [2] (24-h treatment), the “LOAEL MMP” value is 3.91* µM. Moreover, in the data set with U87 MG/PER2-dLuc cells [2] (72-h treatment), the “LOAEL CA (calcium ion)” value is on record as 3.91** µM. Moreover, the “lowest concentration with decrease in MMP” value in the data set on U87 MG/PER2-dLuc cells [2] (24 h of treatment) is recorded as 3.91 µM. In addition, the “IC15 (MTT, Table 1)” value in the data set with U87 MG/PER2-dLuc cells [3] is reported as 49 µM. Moreover, in the data set on U87 MG/PER2-dLuc cells [3] (read-out: IC50 (MTT, Table 1)), the half-inhibitory concentration (IC50) was 51 µM.

Take `Clc1ccc(C(c2ccc(Cl)cc2)C(Cl)(Cl)Cl)cc1` [DDT, 4,4′-dichlorodiphenyltrichloroethane]: in the data set on U87 MG/PER2-dLuc cells [1], the “concentration that disrupted the cellular circadian rhythm” value is recorded as 10 µM, the “LOAEL Circadian disruption” value came to 10 µM and the “effect on cellular circadian rhythm” value was “robust rhythm was gradually abolished”. For the same molecule, in the data set with U87 MG/PER2-dLuc cells [2] (24-h treatment), the “LOAEL CA (calcium ion)” value is listed as 30** µM, the “LOAEL NC (nuclear size)” value is 120** µM and the “LOAEL MMP” value amounted to 15 µM. In the data set with U87 MG/PER2-dLuc cells [2] (72-h timepoint), the “concentration that increased intracellular Ca2+ levels” value is more than 0.47 µM. Further, in the data set on U87 MG/PER2-dLuc cells [2] (72-h treatment), the “LOAEL CA (calcium ion)” value was 0.47** µM. Also, the “lowest concentration with decrease in MMP” value with U87 MG/PER2-dLuc cells [2] (24 h of treatment) worked out at 15 µM. The “concentrations that decreased nuclear size” value in the data set with U87 MG/PER2-dLuc cells [2] (24 h of treatment, p < 0.01, text) is listed as 120 µM. Further, the “IC15 (MTT, Table 1)” value in the data set with U87 MG/PER2-dLuc cells [3] is on record as 18.3 µM. The IC50 with U87 MG/PER2-dLuc cells [3] (read-out: IC50 (MTT, Table 1)) stood at 60 µM.

As to `C[n+]1ccc(-c2ccccc2)cc1` [MPP +, 1-methyl-4-phenylpyridinium], in the data set on U87 MG/PER2-dLuc cells [1], the “concentration that disrupted the cellular circadian rhythm” value is not below 30 µM; the “concentration with no disruptive effect on cellular circadian rhythm” value is on record as 10 µM; the “LOAEL Circadian disruption” value is given as 30 µM; the “effect on cellular circadian rhythm” value is “advanced phase and decreased amplitude”. For the same molecule, the “concentration that increased intracellular Ca2+ levels” value in the data set on U87 MG/PER2-dLuc cells [2] (24-h timepoint) came to 40 µM. Besides, in the data set with U87 MG/PER2-dLuc cells [2] (24-h treatment), the “LOAEL CA (calcium ion)” value is on record as 40 µM and the “LOAEL MMP” value is 40* µM. Moreover, the “concentration that increased intracellular Ca2+ levels” value in the data set on U87 MG/PER2-dLuc cells [2] (72-h timepoint) is 0.63 µM. Further, in the data set on U87 MG/PER2-dLuc cells [2] (72-h treatment), the “LOAEL LP (lipid peroxidation)” value amounted to 160 µM, the “LOAEL CA (calcium ion)” value came out at 0.63 µM and the “LOAEL NC (nuclear size)” value is on record as 80 µM. For the same molecule, in the data set on U87 MG/PER2-dLuc cells [2] (24 h of treatment), the “lowest concentration with decrease in MMP” value is reported as 40 µM. In addition, the “concentrations with increased lipid peroxidation” value with U87 MG/PER2-dLuc cells [2] (72 h of treatment) is more than 160 µM. Further, the “concentrations that changed nuclear size” value in the data set on U87 MG/PER2-dLuc cells [2] (72 h of treatment, MHg biphasic changes, MPP + reduction) lay within 80 to 120 µM. Further, in the data set with U87 MG/PER2-dLuc cells [3], the “IC15 (MTT, Table 1)” value came out at 68.4 µM. The IC50 with U87 MG/PER2-dLuc cells [3] (read-out: IC50 (MTT, Table 1)) was found to be 93 µM.
